This note sets out measurements from patent publication US20240116948A1, “PYRIDO OXAZINE DERIVATIVES AS ALK5 INHIBITORS” (CHIESI FARMACEUTICI S.P.A., priority 2020, published 2024).

The structures appear in SMILES notation.

For this experiment, the target named is human ALK5 (Homo sapiens (Human), UniProt P36897). In words: ADP-GLO Kinases assay, inhibition of ALK5 kinase activity. The note with it: Table 12; compounds classified in term of potency; ATP at Km, 25° C.; read-out: ALK5 IC50. Format: biochemical. As for the experimental part:
The enzymatic activity of compounds of the present invention was monitored measuring the formation of ADP using the ADP-GLO Kinases assay. Following the incubation of the purified enzyme, a substrate and ATP, the produced ADP was converted into ATP, which in turn was converted into light by Ultra-Glo Luciferase. The luminescent signal positively correlated with ADP amount and kinase activity. Briefly, the kinase reaction was performed by incubating 2.6 nM of the purified, commercially available human ALK5 (recombinant TGF 31 N-term GST-tagged, 80-end), a final concentration of TGFβ1 peptide 94.5 μM (Promega, T36-58) and ultra-pure ATP (Promega V915B). The ATP concentration was set at the Km value (concentration of substrate which permits the enzyme to achieve half maximal velocity (Vmax)) of ALK5 (5 μM). All reactions/incubations were performed at 25° C. Compound and ALK5 kinase were mixed and incubated for 15 mins. Reactions were initiated by addition of ATP at a final concentration in the assay of […]. After an incubation of 150 min, the reaction was stopped, and ADP production detected with ADP-Glo kit according to manufacturer's indications. The assay was performed in 384-well format and was validated using a selection of reference compounds that was tested in 11 point concentration-response curve.
Compounds of the examples C1 and C2 were tested in the same in vitro assay described above.

Sequence of human ALK5 (P36897 80-503 limits assumed): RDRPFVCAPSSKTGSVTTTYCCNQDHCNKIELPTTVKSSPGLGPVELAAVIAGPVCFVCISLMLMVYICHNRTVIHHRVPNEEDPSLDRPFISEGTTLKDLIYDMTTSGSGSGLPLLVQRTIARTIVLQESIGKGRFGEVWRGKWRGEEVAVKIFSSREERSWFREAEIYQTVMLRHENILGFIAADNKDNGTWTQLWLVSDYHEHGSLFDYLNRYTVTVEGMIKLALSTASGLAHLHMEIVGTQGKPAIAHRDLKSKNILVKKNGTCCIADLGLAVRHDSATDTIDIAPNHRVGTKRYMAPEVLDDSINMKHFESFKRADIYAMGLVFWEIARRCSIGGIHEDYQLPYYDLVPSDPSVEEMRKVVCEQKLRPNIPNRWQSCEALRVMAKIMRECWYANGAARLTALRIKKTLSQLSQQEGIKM

As to `COC(=O)CN(C)CCC(=O)Nc1cncc(-c2cc(-c3cc(Cl)ccc3F)nc3c2OCCN3)c1` [Example 48, Methyl 2-{[2-({5-[6-(5-chloro-2-fluorophenyl)-2H,3H,4H-pyrido[3,2-b][1,4]oxazin-8-yl]pyridin-3-yl}carbamoyl)ethyl](methyl)amino}acetate], the IC50 (as a rule, the concentration that inhibits the measured activity by half) fell in the range of 5 to 10 nM.
